The record followed here is PMC5859730, “Dual targeting of the cancer antioxidant network with 1,4-naphthoquinone fused Gold(I) N-heterocyclic carbene complexes” (Chemical Science, 2017).

One may read the IC50 as the concentration needed to halve the response being measured.

Read-outs that look alike come from different tables or passages of the source.

The nature of data set [1]: Differential pulse voltammetry, quinone reduction potentials. As to conditions: DMSO, 0.1 M [N(nBu)4][PF6], 0.1 mM analyte, vs. SCE. Type of data set: physicochemical. As to the method: A series of electrochemical analyses, including cyclic voltammetry (CV) and differential pulse voltammetry (DPV), were carried out with [NnBu4][PF6] in anhydrous dimethyl sulfoxide (DMSO) in order to evaluate electronic properties of compounds 1–3 and 4[H][Cl]. […] These electrochemical features were attributed to the reduction of the quinone moiety to first produce the semiquinone radical (NQ^–) and then produce the quinone dianion (NQ^2–) forms of compounds 1–3 and 4[H][Cl].[70],[71] The quinone reduction potential in 4[H][Cl] occurs at –0.38 V, the lowest of all the molecules studied, indicative of a positively charged imidazolium ring. The quinone couple at –0.42 V observed for compound 1 is ascribed to the presence of bis(NHC). The same wave in compound 3 appears at a more negative potential (–0.47 V), presumably due to greater trans effects excreted by quinone annulated NHC ligand than the metal-bound chloride. This analysis agrees well with the differences in the observed δ^13C (Au–Ccarbene) resonances for compounds 1 and 3. […]
mM) as referenced to SCE (internal standard Fc0/+, adjusted to 0.435 V vs. SCE).

Data set [2] deals with A549 lung cancer cells. Kind of data set: Cell proliferation (MTT assay) in A549 lung cancer cells. Type of data set: cell-based, human. On the procedure:
To gauge the ability of each complex to inhibit cancer cell growth, A549 lung cancer cells were treated with 1–3, 4[H][Cl], doxorubicin, and auranofin in a dose responsive manner. Cellular vitality (i.e., mitochondrial reductase activity) was then quantified colorimetrically post treatment using 3-(4,5-dimethylthiazol-2-yl)-2,5-diphenyltetrazolium bromide (MTT assay) (Table 2, Fig. 5).
(§1) Biological preparations and assays
(§2) Experimental compound preparation. Stock solutions of complexes 1–3, 4[H][Cl], auranofin (Tocris Bioscience 4600), and doxorubicin (Tocris Bioscience 2252) were dissolved in DMSO (2.5–10 mM, depending on the compound and its solubility), aliquoted, and stored at -80 °C prior to use.
(§3) Biological Materials and Cell Lines. Cell lines were obtained from the ATCC (A549 and PC-3) and Prof.
Zahid Siddik at M.D. Anderson Cancer Center (A2780 and A2780CP). Cell culture plastic ware (i.e. T-75 flasks, treated 6-well plates, treated 96-well plates, and cell scrapers) were obtained from Fisher Scientific. Cell were cultured in RPMI 1640 culture medium (+2mM glutamine, +25mM HEPES, Corning 10041cv) supplemented with 10% heat-inactivated fetal bovine serum (RMBIO FBS-BBT) and 1X penicillin-streptomycin (Sigma p4333). Unless otherwise noted, incubators were set to 37°C and 5% CO2.
Trypsin (HyClone SH30236.01) and 1X Phosphate Buffered Saline (HyClone SH30258.02, diluted in autoclaved deionized water) were utilized for general cell line maintenance and harvesting. Trace Metal […]
Cell Proliferation Studies. Cells were harvested and seeded into 96-well culture plates (Costar 07-200-90) in 100µL of culture media. They were allowed to incubate overnight at 37 °C in the presence of 5% CO2. […]
and PC-3 at 2000 cells/well. […]
were made. To each well of a 96 well plate was added 100 µL of the appropriate solution. After a total of three days, a […] aliquot of 3 mg/mL tetrazolium dye, 3-(4,5-dimethylthiazol-2-yl)-2,5-diphenyltetrazolium bromide (Alfa Aesar L11939) was added to each well, followed by a 4 hr incubation period at 37 °C. The medium was then removed, the resulting formazan was dissolved in […] DMSO and the respective absorbances were measured at 560–650 nm using a microplate reader (Molecular Devices, Sunnyvale, CA). Absorbance values were corrected for background and then normalized to wells containing untreated cells to allow for plate-to-plate comparisons. The data are shown as mean inhibition of proliferation or growth as a percentage of control cells and are from 2–3 replicate experiments. Resulting dose response curves were subjected to linear regression analysis (Origin by OriginLab, Inc.) for determination of IC50 values.

The next data set deals with A2780 ovarian. The data set is described as follows: Cell proliferation (MTT assay) in A2780 ovarian cells. Type of data set: cell-based, human. As to conditions: wt-p53, platinum sensitive; Table 3. On the procedure: (§4) Further anti-proliferation studies were carried out with complex 1 and its naphthoquinone component 4[H][Cl] using the following cell lines: A2780 ovarian (a wt-p53 cell line sensitive to platinum treatment), 2780CP ovarian (isogenic to A2780 but expressing multi-drug resistance (MDR)), and PC-3 prostate (p53 null) (Table 3).
as §1, §2, §3
(§5) Zahid Siddik at M.D. Anderson Cancer Center (A2780 and A2780CP). Cell culture plastic ware (i.e. T-75 flasks, treated 6-well plates, treated 96-well plates, and cell scrapers) were obtained from Fisher Scientific. […]
(§6) were made. […] The medium was then removed, the resulting formazan was dissolved in […] DMSO and the respective absorbances were measured at 560–650 nm using a microplate reader (Molecular Devices, Sunnyvale, CA). Absorbance values were corrected for background and then normalized to wells containing untreated cells to allow for plate-to-plate comparisons. […]
(In general: Tetrazolium assays rely on reduction of a dye to a coloured formazan, in cell work by metabolically active cells.)

The next data set deals with 2780CP ovarian. Kind of data set: Cell proliferation (MTT assay) in 2780CP ovarian cells. Type of data set: cell-based, human. As to conditions: isogenic to A2780, multi-drug resistance; Table 3. As to the method: as §4, §1, §2, §3, §5, §6
Another data set relates to PC-3 prostate. The data set is described as follows: Cell proliferation (MTT assay) in PC-3 prostate cells. Type of data set: cell-based, human. To be noted: p53 null; Table 3. As to the method:
as §4, §1, §2, §3, §5, §6

The test system of data set [3] is A549 lung cancer cells. Kind of data set: ICP-MS detection of intracellular Au (cellular uptake).
The subject of data set [4] is A549 cells. The data set is described as follows: Detection of intracellular ROS by flow cytometry (CM-H2DCFDA). As to conditions: A549, 2.5 μM, 6 h incubation, CM-H2DCFDA. Type of data set: cell-based, human. A general note: In flow cytometry, cells or beads pass a laser one at a time.
The subject of a further data set is A549 cancer cells. Kind of data set: Confocal microscopy of ROS localisation. Type of data set: cell-based, human. As to conditions: A549, 1.25 μM, 4 h. As to the method: To further elucidate the subcellular loci of ROS accentuation, confocal microscopy was employed to fluorescently image A549 cancer cells treated with vehicle (DMSO) and 1.25 μM complex 1 (Fig. 7d). All cells were selectively stained for visualization of ROS accentuation (green, CM-H2DCFDA), mitochondria (red, Mitotracker Red), and nuclei (blue, Hoechst).
Serum Protein Binding Studies.
aliquots were stored at -80°C.
in an Edvotek microcentrifuge. […] Samples
Detection of ROS by Flow Cytometry.
cells were treated with vehicle only.
g) at 5 °C. […] The pellet was
Control samples of unstained cells,
overnight. […] Post incubation, the media was
After incubation, the dye-
Cells were then imaged fluorescently
Lipoate Inhibition Assays.
well culture plates. […] The next day, appropriate
were added to each well. […] Afterwards, the liquid was then

For data set [5], the system named is A549 cells. Kind of data set: Apoptosis by annexin-V/PI flow cytometry. Type of data set: cell-based, human. To be noted: A549, 1.25–20 μM, 24 h.
Another data set has as its system zebrafish embryos. The data set is described as follows: Zebrafish toxicity analysis (lethality, MTD). Type of data set: in vivo.
Data set [6] concerns DNA duplex (5'CCGCAGCCA3'/5'TGGCTGCGG3'). Kind of data set: Thermal denaturation of a DNA duplex. Type of data set: binding. As to conditions: 1 molar equivalent, 5 μM complex and duplex.
The subject of data set [7] is thioredoxin reductase (TrxR). To be noted: A549, 0.1–0.6 μM, 6 h exposure, lipoate reduction over 180 min.
Method: Briefly, plateau phase A549 cells were exposed to variable doses of complexes 1, 3, 4[H][Cl], a 2 : 1 molar ratio of 4[H][Cl] and 5 (cocktail), auranofin, and doxorubicin for 6 h. Post treatment, the live cells were monitored colorimetrically over 180 min for their ability to reduce lipoate (Fig. 8a).

Consider `Cc1cc(C)c(-n2c3c(n(-c4c(C)cc(C)cc4C)[c]2=[Au-]=[c]2n(-c4c(C)cc(C)cc4C)c4c(n2-c2c(C)cc(C)cc2C)C(=O)c2ccccc2C4=O)C(=O)c2ccccc2C3=O)c(C)c1.[Cl][Ag-][Cl]` [Complex 1, [bis(1,3-dimesityl-4,5-naphthoquino-imidazol-2-ylidene)-gold(I)] [silver(I)dichloride]], for which, in data set [1] (first reduction, semiquinone radical (NQ˙–)), the “E 1/2 a (V) DPV” value is recorded as “–0.42 V”. Moreover, the “E 1/2 b (V) DPV” value in data set [1] (second reduction, quinone dianion (NQ2–)) is recorded as “–1.31 V”. Also, in the data set on A549 lung cancer cells [2] (A549, ratio of IC50 to that of 1 (Table 2)), the “Fold difference relative to 1” value is given as 1. Moreover, the IC50 in the data set on A549 lung cancer cells [2] (A549 lung cancer cells, MTT, 72 h, read-out: IC50) amounted to 73 nM; in the data set with A549 lung cancer cells [2] (Table 3, error = standard error from the mean, read-out: IC50 A549 lung), 73 ± 16 nM; in the data set on A2780 ovarian, 26 ± 7 nM; with 2780CP ovarian, 54 ± 6 nM; in the data set on PC-3 prostate, 96 ± 17 nM. In addition, in the data set on A549 lung cancer cells [3], the “Intracellular Au levels (uptake), in words” value was “identical”. Moreover, the “Increase in intracellular ROS (fluorescence cell population shift)” value in the data set with A549 cells [4] stood at 27 fold. Besides, the “Subcellular locus of ROS accentuation” value with A549 cancer cells is “ROS accentuation is arising from mitochondria”. Also, in the data set on A549 cells [5], the “Mechanism of cell death” value is listed as “induces controlled cell death via an apoptotic mechanism”. The Lethality in the data set on zebrafish embryos (zebrafish embryos, concentrations above 1 μM) is on record as 100%. For the same compound, the “LC50 (50% lethal concentration)” value in the data set on zebrafish embryos (zebrafish embryos/larvae) stood at 750 nM. The Mortality in the data set on zebrafish embryos (zebrafish larvae, 0.75 μM dose) was ~ 50%. In addition, in data set [6], the “Thermal stabilization of DNA” value was “no thermal stabilization”. For the same compound, the “Inhibition of TrxR at low concentrations” value in data set [7] is listed as “inhibition of TrxR was apparent”.
